The values that follow are results of earlier work, collected in US10351593B2, “Derivatives of dolastatin 10 and uses thereof” (NewBio Therapeutics, Inc., priority 2015, dated 2019).

The subject of the series is human carcinoma lines.

On to `COc1cccc2c1C(=O)c1c(O)c3c(c(O)c1C2=O)C[C@@](O)(C(=O)CO)C[C@@H]3O[C@H]1C[C@H](N)[C@H](O)[C@H](C)O1` [doxorubicin], for which the IC50 is 100 to 200 nM.

By IC50 is commonly meant the point on the concentration scale where inhibition reaches its midpoint.
